Consider eight compounds from patent US12162836B2, “N-acyl-{4-[(4-aryl-phenyl)sulfonylmethyl]piperidine} compounds and their therapeutic use” (Modern Biosciences Limited, priority 2019, dated 2024).

For one series, the system named is human hepatocytes. The experiment in a line: Human Hepatocyte Stability. It is filed as in vitro ADME. Conditions: for metabolic stability (in words): human hepatocytes. Here is the method: Metabolic stability of test compounds was measured by determination of the rate of disappearance of the compound when incubated in the presence of human hepatocytes, a primary source of the most important enzymes (cytochrome P450s) involved in drug metabolism. Study of drug stability in the presence of primary hepatocytes is accepted as a valuable model permitting rapid prediction of in vivo drug stability.
Human hepatocytes were obtained from a commercial source and viability was assessed using a trypan blue solution prior to use. Test compounds (final concentration 1 μM, 0.1 DMSO, 0.9% acetonitrile) or a marker (diclofenac or diltiazem, final assay concentration 1 μM, 0.1% DMSO, 0.9% acetonitrile) were incubated with pooled hepatocytes for a 60 minute period and samples removed at up to 6 time points and analysed by LC-MS/MS for the presence/amount of test compounds.
Each compound was incubated for 0, 5, 15, 30, 45, or 60 minutes. The reactions were stopped by the addition of methanol containing an internal standard (1 μM Tolbutamide) at the appropriate time points, mixed and placed at −20° C. for 1 hour to quench and allow protein to precipitate. All samples were centrifuged (2500× g, 20 minutes, 4° C.). The aliquots were analysed using LC-MS/MS. Reactions were performed in duplicate at 37° C.
Data were processed, and the results plotted as In(concentration) vs. time. The elimination rate constant (slope of the regression line, k) was calculated using the following formula, where C(t) is the concentration at time t and C(0) is the starting concentration:
The half-life (t1/2) was calculated using the following formula: […]
The intrinsic clearance (Clint) was calculated using the following formula, where [cell] is the hepatocyte concentration in the assay: […]

For series [1], the system named is Thp1 human monocytic cells. The series can be described thus: Thp1 Monocyte ATP Production Assay (ATPlite). Type of series: cell-based. Conditions: for IC50: Thp1 cells, 24 hour incubation, 9-point concentration range from 10 μM to 10 nM, mean of 2 independent experiments; for potency in the Thp1 monocytic ATP assay (in words): as compared to the reference compounds. A digest of the protocol:
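Thp1 cells in glucose-free RPMI-1640 with 1% FBS were treated with compounds for 24 h at 37 °C/5% CO2, then ATP measured by ATPlite luminescence. Signal expressed as % of control viability; IC50 from 4-parameter fit, mean of two experiments.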
A general note: In ATP-based viability assays light output follows the ATP content of the culture.

A short description of series [2]: Aqueous solubility in FaSSIF. Conditions: for solubility at 16 h: kinetic from dmso stock. It is filed as physicochemical.
Where [3] appears, read: pH 6.5, 16 hours, room temperature.
The mark [4] stands for this setting: pooled human hepatocytes, 1 μM, 60 minute incubation.

Converted amounts (≈) assume the structure as drawn.

Regarding `CC(=O)N1CCC(CS(=O)(=O)c2ccc(-c3ccc(Cl)cc3C#N)cc2)CC1` [NASMP-06, 4′-(((1-Acetylpiperidin-4-yl)methyl)sulfonyl)-4-chloro-[1,1′-biphenyl]-2-carbonitrile], the “metabolic stability (in words)” value in the series on human hepatocytes is listed as “exceptionally good stability”. This compound registered an IC50 in series [1] (Homo sapiens, THP-1) of 900 nM. Moreover, the “solubility (in words)” value in series [2] is on record as “particularly good solubility”. In series [2] (setting [3]), this compound registered a solubility at 16 h of 83 µg/mL (≈ 199 µM).

For `CCC(=O)N1CCC(CS(=O)(=O)c2ccc(-c3ccc(F)cc3F)cc2)CC1` [NASMP-15, 1-(4-(((2′,4′-Difluoro-[1,1′-biphenyl]-4-yl)sulfonyl)methyl)piperidin-1-yl)propan-1-one], the “metabolic stability (in words)” value in the series on human hepatocytes is “exceptionally good stability”. The IC50 in series [1] (Homo sapiens, THP-1) came out at 600 nM. The “potency in the Thp1 monocytic ATP assay (in words)” value (“potency” for short) in series [1] is listed as “excellent potency”. In addition, the “solubility (in words)” value in series [2] is “particularly good solubility”. The solubility at 16 h in series [2] (setting [3]) was determined as 73 µg/mL (≈ 179 µM).

With `CC(=O)N1CCC(CS(=O)(=O)c2ccc(-c3ccc(F)cc3F)cc2C(F)(F)F)CC1` [NASMP-12, 1-(4-(((2′,4′-Difluoro-3-(trifluoromethyl)-[1,1′-biphenyl]-4-yl)sulfonyl)methyl)piperidin-1-yl)ethan-1-one], the “metabolic stability (in words)” value in the series with human hepatocytes is listed as “exceptionally good stability”. In series [1] (Homo sapiens, THP-1), half-maximal inhibition (IC50) was put at 100 nM. Moreover, the “potency” value in series [1] was “excellent potency”. Moreover, in series [2], the “solubility (in words)” value was “particularly good solubility”. The concentration in solution in series [2] (setting [3]) (solubility at 16 h) was 68 µg/mL (≈ 147 µM).

As for `CC(=O)N1CCC(CS(=O)(=O)c2ccc(-c3ccc(C(F)(F)F)cc3F)cc2)CC1` [NASMP-07, 1-(4-(((2′-Fluoro-4′-(trifluoromethyl)-[1,1′-biphenyl]-4-yl)sulfonyl)methyl)piperidin-1-yl)ethan-1-one], the IC50 in series [1] (Homo sapiens, THP-1) was determined as 800 nM. The “potency” value in series [1] is “excellent potency”. The “solubility (in words)” value in series [2] is on record as “particularly good solubility”. In series [2] (setting [3]), this compound had a solubility at 16 h of 89 µg/mL (≈ 201 µM).

In the case of `CC(=O)N1CCC(CS(=O)(=O)c2ccc(-c3c(F)cccc3F)cc2)CC1` [NASMP-09, 1-(4-(((2′,6′-Difluoro-[1,1′-biphenyl]-4-yl)sulfonyl)methyl)piperidin-1-yl)ethan-1-one], the “metabolic stability (in words)” value in the series with human hepatocytes is reported as “exceptionally good stability”. In series [1] (Homo sapiens, THP-1), this compound had an IC50 of 1400 nM. In series [2] (setting [3]), this compound yielded a solubility at 16 h of 28 µg/mL (≈ 71.2 µM).

For the compound `CC1(O)CCC(NS(=O)(=O)c2ccc(-c3ccc(F)cc3F)cc2)CC1` (stereo not shown) [ABD899, reference compound], in the series on human hepatocytes (setting [4]), the “Human Clint” value was 9 uL/min/million cells and the “Human t1/2” value came to 2.48 h. For the same compound, the half-maximal inhibitory concentration (IC50) in series [1] came out at 200 nM. Besides, the Solubility in series [2] (setting [3]) is 0.06 ^(3) mg/mL. This compound also registered a Solubility in series [2] (pH 6.8) of 0.13 mg/mL (≈ 341 µM).

In the case of `CC(=O)N1CCC(CS(=O)(=O)c2ccc(-c3ccc(C#N)cc3Cl)cc2)CC1` [NASMP-05, 4′-(((1-Acetylpiperidin-4-yl)methyl)sulfonyl)-2-chloro-[1,1′-biphenyl]-4-carbonitrile], the “metabolic stability (in words)” value with human hepatocytes is given as “exceptionally good stability”. Besides, half-maximal inhibition in series [1] (Homo sapiens, THP-1) (IC50) was put at 1100 nM. Moreover, the “solubility (in words)” value in series [2] is “particularly good solubility”. In series [2] (setting [3]), this compound yielded a solubility at 16 h of 62 µg/mL (≈ 149 µM).

For the compound `CC(=O)N1CCC(CS(=O)(=O)c2ccc(-c3ccc(F)cc3F)cc2)CC1` [NASMP-01, 1-(4-(((2′,4′-Difluoro-[1,1′-biphenyl]-4-yl)sulfonyl)methyl)piperidin-1-yl)ethan-1-one], in the series with human hepatocytes, the “metabolic stability (in words)” value is “exceptionally good stability”. In series [1] (Homo sapiens, THP-1), this compound yielded an IC50 of 1000 nM. Further, in series [1], the “potency” value is “excellent potency”. The compound also displayed a solubility at 16 h in series [2] (setting [3]) of 75 µg/mL (≈ 191 µM).

A word on the IC50: it is the concentration that gives 50% inhibition. Low readings indicate higher potency, high ones lower potency. As usually defined, the solubility is the dissolved amount per volume that the medium holds. A higher solubility goes with a readily soluble substance. As a reminder, the Solubility is the concentration that dissolves in the medium under given conditions.
